ChEMBL document CHEMBL5260804 (ACS Med Chem Lett, 2017)

Columns and labels:
[1] = test system: Oocyte; assay: Inhibition of influenza A virus A/WSN/33-M2-N31S (H1N1) M2 transmembrane domain V28I mutant expressed in Xenopus laevis oocytes assessed as inhibition of channel current at 100 uM measured after 5 mins by two-electrode voltage clamp assay relative to control; format: cell-based
[2] = test system: Oocyte; assay: Inhibition of influenza A virus A/WSN/33-M2-N31S (H1N1) M2 transmembrane domain V28I mutant expressed in Xenopus laevis oocytes assessed as inhibition of channel current at 100 uM measured after 2 mins by two-electrode voltage clamp assay relative to control; format: cell-based
[3] = test system: Influenza A virus; assay: Antiviral activity against amantadine-sensitive influenza A virus A/WSN/33-M2-N31S (H1N1) infected in MDCK cells assessed as inhibition of virus-induced cytopathic effect incubated for 48 hrs by crystal violet/neutral red staining based assay; format: functional, organism-based

Compound	inhibition [1] [%]	inhibition [2] [%]	IC50 [3] [nM]
CC(N)C12CC3CC(CC(C3)C1)C2 (racemic) [RIMANTADINE]	93	84	40
C[C@@H](N)C12CC3CC(CC(C3)C1)C2	90	71	40
C[C@H](N)C12CC3CC(CC(C3)C1)C2	92	78	20
CC(C)(N)C12CC3CC(CC(C3)C1)C2	80	56	30
NC12CC3CC(CC(C3)C1)C2 [AMANTADINE]			480
